Laboratory results: publication PMC10610023, “Nucleoside Analog 2′,3′-Isopropylidene-5-Iodouridine as Novel Efficient Inhibitor of HIV-1” (Pharmaceutics, 2023)
Like-named read-outs stand apart in the source and are kept apart here.

Columns and labels:
[1] = system: HIV-1 based replication-defective lentiviral particles; test: microbe, parasite or virus in culture; assay type: cell-based; details: for EC50: Human immunodeficiency virus 1, CEM-SS, 72 h
[2] = system: HIV-1 based replication-defective lentiviral particles; test: Drug combination analysis AZT with 2f, VP-GFP transduction of CEM-ss cells; details: AZT and 2f in combination, up to 30 μM each
Description: (§4) In our experiments, we decided not to exceed the concentration of 30 μM of each drug in order to exclude the possible side effects of DMSO; concentration in a well for these experiments was not more than 0.06%. The equivalent concentration of DMSO (0.06%) was used in control samples of cells not treated with drugs. […] At 72 h after transduction, the percentage of eGFP-positive cells was determined by flow cytometry (LSR Fortessa, BD Biosciences, Heidelberg, Germany). […] Analysis of the eGFP positive cells percentage was performed with FlowJo software 10.0.7 (FlowJo LLC, Ashland, OR, USA).
(§5) For this we used both compounds at the wide range of concentrations.
(§6) Next, the synergy distribution plots were generated and analyzed using the Synergy Finder v3.0 web source. We used the ZIP model to calculate synergy scores that were used to interpret drug interaction relationships. Scores larger than 10 mean that the interaction between two drugs is synergistic. Scores up to 10 mean that the interaction is likely to be additive.

[3] = system: HIV-1 based replication-defective lentiviral particles; test: Drug combination analysis Palbociclib with AZT or 2f, VP-GFP transduction of Jurkat cells; assay type: cell-based; details: for drug interaction with Palbociclib (ZIP synergy): pre-treated with Palbociclib 12 h; for inhibition at 0.0029 µM / inhibition at 0.0059 µM / inhibition at 0.0117 µM: Human immunodeficiency virus 1, Jurkat, read-out: Inhibition efficiency, %, Jurkat
Description: At 48 h post treatment with viral particles encoding marker GFP, the transduction efficiency was measured by flow cytometry (Figure 6E). In both combinations, Palbociclib was used in concentrations of ~3 nM, ~6 nM, or ~12 nM. […] Then, the dose-response matrixes were used to calculate synergy scores using ZIP algorithm (Figure 6F,G).

[4] = system: HIV-1 based replication-defective lentiviral particles; test: microbe, parasite or virus in culture; assay type: cell-based; details: for EC50: Human immunodeficiency virus 1, Jurkat, 72 h
[5] = Cell viability analysis, Trypan blue staining, CEM-ss cells; assay type: cell-based, human; details: human, CEM-ss cells, 0–30 μM
Description: (§1) In this study, we used Jurkat and CEM-ss (human T-lymphoblastic leukemia) cells cultured in RPMI-1640 medium and HEK293T (human embryonic kidney cells) cells cultured in a DMEM medium. Growth medium was supplemented with 10% FBS (fetal bovine serum), 2 mM L-glutamine, 1mM sodium pyruvate, 100 μg/mL of streptomycin, and 100 units/mL of penicillin (Gibco/Invitrogen Life technologies). Cells were cultured at 37 °C in a humidified atmosphere with 5% CO2.
(§2) Palbociclib was dissolved in H2O. At 72 h after treatment, cell viability was assessed by staining with a 0.4% Trypan blue solution (Invitrogene Corp., Carlsbad, CA, USA) by counting in a Neubauer chamber. CC50s were calculated by nonlinear regression with variable slope (four parameters) and robust fitting using the GraphPad Prism software v.8.4.3 (GraphPad Software, San Diego, CA, USA).

[6] = system: HIV-1 based replication-defective lentiviral particles; test: Drug combination analysis AZT with 2f, VP-GFP transduction of Jurkat cells
Description: as §4, §5, §6

[7] = Cell viability analysis, Trypan blue staining, Jurkat cells; assay type: cell-based, human; details: human, 72 h
Description: as §1, §2

CEM-ss cells = test: Cell viability analysis, Trypan blue staining, CEM-ss cells; assay type: cell-based, human; details: 72 h, concentrations up to 30 μM
Description: as §1, §2

Jurkat cells [8] = test: Cell viability analysis, Trypan blue staining, Jurkat cells; assay type: cell-based, human
Description: as §1, §2

Jurkat cells [9] = test: Cell cycle analysis, propidium iodide staining, Jurkat cells; assay type: cell-based, human; details: concentrations up to 12 nM
Description: (§3) Apoptosis was measured by double staining with Annexin V-FITC (Invitrogene, Thermo Scientific, Waltham, MA, USA) and propidium iodide (PI) (Sigma, Cibolo, TX, USA) 72 h after transduction. To measure the distribution of cells in the phases of the cell cycle, Jurkat cells were fixed in ethanol and stained with propidium iodide. All measurements were performed on an LSR Fortessa flow cytometer (BD Biosciences, San Jose, CA, USA). […] Analysis of cell cycle rate was performed with ModFit LT software v.4.1.7 (Verity Software House, Topsham, ME, USA).

Jurkat cells [10] = test: Apoptosis analysis, Annexin V-FITC/PI staining, Jurkat cells; assay type: cell-based, human; details: 72 h, concentrations up to 12 nM
Description: as §3

[11] = 72 h, concentrations up to 30 μM

For `CC1(C)O[C@@H]2[C@H](O1)[C@@H](CO)O[C@H]2n1cc(I)c(=O)[nH]c1=O` [2f, 2′,3′-O-isopropylidene-5-ioduridine], the EC50 [1] was 13.1 ± 1.3 µM, the “drug interaction (ZIP synergy, SynergyFinder)” value [2] was “do not act synergistically” and the “drug interaction with Palbociclib (ZIP synergy)” value ([3]; Jurkat) was “acts synergistically”. For the same molecule, the “effect on transduction efficiency of HIV-1 lentiviral particles (VP-GFP)” value [4] was “caused the suppression of the transduction efficiency”, the EC50 [4] was 10.5 ± 1.2 µM and the CC50 at 72 h [5] was over 30 µM. The “suppression of VP-GFP transduction efficiency” value (“suppression” for short) ([6]; 2f 12 μM supplemented with AZT 12 μM, compared with 2f alone 30 μM (90%)) was “same activity”, the “drug interaction (ZIP synergy, SynergyFinder)” value ([6]; AZT and 2f in combination, up to 30 μM each) was “do not act synergistically” and the “suppression” value ([6]; compound alone, 12 μM) was 70%. The “suppression” value ([6]; compound alone, 30 μM) was 90% and the CC50 at 72 h ([7]; 0–30 μM) was over 30 µM.
Work on `CC1(C)O[C@@H]2[C@H](O1)[C@@H](CO)O[C@H]2n1cc(Cl)c(=O)[nH]c1=O` [2d, 2′,3′-O-isopropylidene-5-chlorouridine] yielded an EC50 [1] of over 30 µM, an EC50 [4] of over 30 µM and a CC50 at 72 h [5] of over 30 µM. It also gave a CC50 at 72 h ([7]; 0–30 μM) of over 30 µM.
`CC1(C)O[C@@H]2[C@H](O1)[C@@H](CO)O[C@H]2n1cc(Br)c(=O)[nH]c1=O` [2e, 2′,3′-O-isopropylidene-5-bromouridine] showed an EC50 [1] of over 30 µM, an EC50 [4] of over 30 µM and a CC50 at 72 h [5] of over 30 µM. It also gave a CC50 at 72 h ([7]; 0–30 μM) of over 30 µM.
For `Cc1cn([C@H]2C[C@H](N=[N+]=[N-])[C@@H](CO)O2)c(=O)[nH]c1=O` [AZT, 3′-Azido-2′,3′-dideoxythymidine, reference compound], the “cells remaining GFP positive (plateau effect)” value ([1]; CEM-ss, from 2 μM up to 30 μM) was “about 20%”, the EC50 [1] was 0.0122 ± 0.0114 µM and the “drug interaction with Palbociclib (ZIP synergy)” value ([3]; Jurkat) was “no synergistic action”. For the same molecule, the EC50 [4] was 0.4 ± 0.1 µM, the “cells remaining GFP positive (plateau effect)” value ([4]; Jurkat, from 2 μM up to 30 μM) was “about 30%” and the CC50 at 72 h [5] was over 30 µM. The “effect on cell survival” value (CEM-ss cells) was “did not affect cell survival”, the CC50 at 72 h ([7]; Jurkat cells, 0–30 μM) was over 30 µM and the “effect on cell survival” value (Jurkat cells [8]; [11]) was “did not affect cell survival”.
With `CC(=O)c1c(C)c2cnc(Nc3ccc(N4CCNCC4)cn3)nc2n(C2CCCC2)c1=O` [Palbociclib] the “effect on cell cycle progression” value (Jurkat cells [9]) was “did not find any effect on cell cycle progression”, the inhibition at 0.0029 µM ([3]; Palbociclib alone 2.9 nM (2f 0 nM, matrix of panel G)) was 10.8% and the inhibition at 0.0029 µM ([3]; Palbociclib alone 2.9 nM (AZT 0 nM, matrix of panel F)) was 8.03%. It also gave an inhibition at 0.0059 µM ([3]; Palbociclib alone 5.9 nM (2f 0 nM, matrix of panel G)) of 5.66%, an inhibition at 0.0059 µM ([3]; Palbociclib alone 5.9 nM (AZT 0 nM, matrix of panel F)) of 8.75% and an inhibition at 0.0117 µM ([3]; Palbociclib alone 11.7 nM (2f 0 nM, matrix of panel G)) of 3.9%. The inhibition at 0.0117 µM ([3]; Palbociclib alone 11.7 nM (AZT 0 nM, matrix of panel F)) was 0.83%, the “suppressive effect on transduction efficiency of VP-GFP” value ([3]; Jurkat, Palbociclib alone, ~3, ~6 or ~12 nM) was “not more than 10%” and the induction of apoptosis (Jurkat cells [10]) was “does not cause the induction of apotosis”. The CC50 at 72 h ([7]; Jurkat cells, Palbociclib 0–6 μM) was 0.141 ± 0.0256 µM and the “effect on cell survival” value (Jurkat cells [8]; concentrations up to 12 nM) was “not to affect cell survival”.
In the case of `Cc1cn([C@@H]2O[C@H](CO)[C@H]3OC(C)(C)O[C@H]32)c(=O)[nH]c1=O` [2b, 2′,3′-O-isopropylidene-5-methyluridine], the EC50 [1] is reported as over 30 µM, the EC50 [4] is reported as over 30 µM and the CC50 at 72 h [5] is reported as over 30 µM. For the same molecule, the CC50 at 72 h ([7]; 0–30 μM) was over 30 µM.
Molecule `CC1(C)O[C@@H]2[C@H](O1)[C@@H](CO)O[C@H]2n1ccc(=O)[nH]c1=O` [2a, 2′,3′-O-isopropylideneuridine] has an EC50 [1] of over 30 µM, an EC50 [4] of over 30 µM and a CC50 at 72 h [5] of over 30 µM. It also gave a CC50 at 72 h ([7]; 0–30 μM) of over 30 µM.
For `CC1(C)O[C@@H]2[C@H](O1)[C@@H](CO)O[C@H]2n1cc(F)c(=O)[nH]c1=O` [2c, 2′,3′-O-isopropylidene-5-fluorouridine], the CC50 at 72 h [5] was 8.4 ± 2.2 µM, the “effect on cell survival” value (CEM-ss cells) was “significant suppressive effect on the survival” and the CC50 at 72 h ([7]; 0–30 μM) was 7.9 ± 0.6 µM. The “effect on cell survival” value (Jurkat cells [8]; [11]) was “significant suppressive effect on the survival”.
